Assay results reported in the CheMixHub ionic liquid set.

Assay: xn = mol fraction of the nth substance listed

CCCCCCCCCCCCCC[P+](CCCCCC)(CCCCCC)CCCCCC.Cc1ncc([N+](=O)[O-])[n-]1 + COCCOCCOCCOCCOC
viscosity [mPa·s], 100 kPa
Details	278.15 K	283.15 K	288.15 K	293.15 K	298.15 K	303.15 K	308.15 K	313.15 K	318.15 K	323.15 K
x2 = 0.151	2535	1685	1140	791	563	411	306	232	179	141
x2 = 0.399	595	425	308	228	173	134	106	85	69	57

CCCCCCCCCCCCCC[P+](CCCCCC)(CCCCCC)CCCCCC.N#C[N-]C#N + COCCOCCOCCOCCOC
viscosity [mPa·s], 100 kPa
Details	278.15 K	283.15 K	288.15 K	293.15 K	298.15 K	303.15 K	308.15 K	313.15 K	318.15 K	323.15 K
x2 = 0	1750	1210	842	603	442	331	253	196	155	124
x2 = 0.099	1130	794	566	413	308	234	182	143	115	93
x2 = 0.203	708	508	370	275	209	162	128	103	83	69
x2 = 0.299	479	348	258	195	151	119	96	78	64	54
x2 = 0.501	160	122	95	75	61	–	–	–	–	–
x2 = 0.652	73	57	–	–	–	–	–	–	–	–

CCCCCCCCCCCCCC[P+](CCCCCC)(CCCCCC)CCCCCC.N#Cc1nc[n-]c1C#N + COCCOCCOCCOCCOC
viscosity [mPa·s], 100 kPa
Details	278.15 K	283.15 K	288.15 K	293.15 K	298.15 K	303.15 K	308.15 K	313.15 K	318.15 K	323.15 K
x2 = 0.201	1051	723	507	365	269	203	156	123	98	79
x2 = 0.401	389	283	209	158	122	97	77	63	–	–

CC[n+]1ccn(C)c1.O=S(=O)([O-])C(F)(F)F + CS(C)=O
100 kPa
Details	viscosity [mPa·s]
298.15 K, x1 = 0.1068	3.7
298.15 K, x1 = 0.3077	7.9
318.15 K, x1 = 0.4023	7
323.15 K, x1 = 0.4933	8.2

COCCOCCn1cc[n+](CCC#N)c1.O=S(=O)([N-]S(=O)(=O)C(F)(F)F)C(F)(F)F + CS(C)=O
101.3 kPa
Details	electrical conductivity [S/m]	viscosity [mPa·s]
293.15 K, x1 = 0.1981	0.00634	8.12
293.15 K, x1 = 0.2776	0.00928	–
303.15 K, x1 = 0.0989	0.00234	–
303.15 K, x1 = 0.1981	0.00768	–
303.15 K, x1 = 0.2776	0.0112	9.24
303.15 K, x1 = 0.5029	0.0405	26.2
303.15 K, x1 = 0.89	0.0942	83.1
313.15 K, x1 = 0.0989	0.00278	–
313.15 K, x1 = 0.1981	0.00939	–
313.15 K, x1 = 0.798	0.148	33.2
313.15 K, x1 = 0.89	0.125	51.5
323.15 K, x1 = 0.0989	0.00342	–
323.15 K, x1 = 0.1981	0.0122	3.212
323.15 K, x1 = 0.798	0.203	24.66

CC[n+]1ccn(C)c1.O=S(=O)([O-])C(F)(F)F + CS(C)=O + CC#N
viscosity [mPa·s], 100 kPa
Details	298.15 K	303.15 K	308.15 K	313.15 K	318.15 K	323.15 K
x1 = 0.1068, x2 = 0.8932	3.7	–	–	–	–	–
x1 = 0.2015, x2 = 0.7985	5.3	4.7	–	3.8	3.4	–
x1 = 0.2065, x2 = 0.6555	3.5	–	–	–	–	–
x1 = 0.2333, x2 = 0.6152	3.7	–	–	–	–	–
x1 = 0.2695, x2 = 0.5629	4.1	3.7	3.4	–	–	–
x1 = 0.3077, x2 = 0.6923	7.9	–	6.1	5.4	4.9	–
x1 = 0.3091, x2 = 0.5059	4.6	4.2	3.9	3.5	–	–
x1 = 0.3343, x2 = 0.4656	5.1	4.6	–	3.8	3.5	–
x1 = 0.361, x2 = 0.4229	5.6	5	4.6	4.2	3.8	–
x1 = 0.3948, x2 = 0	4.5	4.1	3.8	3.5	–	–
x1 = 0.4023, x2 = 0.5977	–	–	8.9	7.8	7	6.2
x1 = 0.4096, x2 = 0.3523	6.7	6	5.4	4.9	4.4	4.1
x1 = 0.4353, x2 = 0.3096	7.4	6.6	–	5.3	4.8	–
x1 = 0.4741, x2 = 0.2498	8.5	7.6	6.7	6	5.5	5
x1 = 0.4933, x2 = 0.5067	–	–	–	–	9.3	8.2
x1 = 0.498, x2 = 0	7.4	6.6	6	5.4	4.9	–
x1 = 0.5094, x2 = 0.1935	9.7	8.6	7.6	6.8	6.1	5.5
x1 = 0.5368, x2 = 0.1703	–	9.5	8.4	7.5	6.7	6
x1 = 0.5656, x2 = 0.1458	–	–	9.2	8.2	7.3	6.6
x1 = 0.595, x2 = 0	–	9.5	8.4	7.5	6.7	6
x1 = 0.5961, x2 = 0.12	–	–	–	9	8	7.2
x1 = 0.6284, x2 = 0.0927	–	–	–	–	8.9	7.9
x1 = 0.6565, x2 = 0.0845	–	–	–	–	9.7	8.6
x1 = 0.686, x2 = 0.076	–	–	–	–	–	9.4
x1 = 0.6936, x2 = 0	–	–	–	–	9.5	8.3
x1 = 0.7058, x2 = 0.0663	–	–	–	–	–	9.9
x1 = 0.9005, x2 = 0	34	–	–	–	–	–
x1 = 0.9008, x2 = 0.0992	39	–	–	–	–	–
x1 = 1, x2 = 0	46	38	–	–	–	–
